Reference: PubChem BioAssay (NCI)
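48-hour exposure; five concentrations; linearly interpolated endpoints. At the GI50, growth is halved. The concentration for full growth arrest is given as TGI.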

Assays:
Test in all cases: NCI tumour cell line growth inhibition, 48 h
HCT-116 colon = system: HCT-116 colon
HOP-62 NSCLC = system: HOP-62 NSCLC
NCI-H23 lung = system: NCI-H23 lung
OVCAR-8 ovarian = system: OVCAR-8 ovarian
RPMI-8226 leukemia = system: RPMI-8226 leukemia
SF-268 CNS = system: SF-268 CNS
SN12C renal = system: SN12C renal
SNB-75 CNS = system: SNB-75 CNS
SW-620 colon = system: SW-620 colon
TK-10 renal = system: TK-10 renal

For Nc1nc(-c2cccs2)cs1, the TGI (HCT-116 colon) was greater than 100 µM, the TGI (HOP-62 NSCLC) was greater than 100 µM and the TGI (NCI-H23 lung) was greater than 100 µM. For the same compound, the TGI (OVCAR-8 ovarian) was greater than 100 µM, the TGI (RPMI-8226 leukemia) was greater than 100 µM and the TGI (SF-268 CNS) was greater than 100 µM. It also gave a TGI (SN12C renal) greater than 100 µM, a TGI (SNB-75 CNS) greater than 100 µM and a TGI (SW-620 colon) greater than 100 µM. The TGI (TK-10 renal) was greater than 100 µM.

Compound Cc1nc2sc(C(=O)Nc3cccc(Br)c3)c(N)c2cc1C(O)c1ccccc1 (stereo not given) has a GI50 (HCT-116 colon) of 0.438 µM, a TGI (HCT-116 colon) of 16.2 µM and a GI50 (HOP-62 NSCLC) of 1.57 µM. For the same compound, the TGI (HOP-62 NSCLC) was 32.4 µM, the GI50 (NCI-H23 lung) was 1.13 µM and the TGI (NCI-H23 lung) was 17.9 µM. For the same compound, the GI50 (OVCAR-8 ovarian) was 1.42 µM, the TGI (OVCAR-8 ovarian) was 55.1 µM and the GI50 (RPMI-8226 leukemia) was 0.511 µM. The TGI (RPMI-8226 leukemia) was greater than 23.1 µM, the GI50 (SF-268 CNS) was 1.81 µM and the TGI (SF-268 CNS) was 20.2 µM. It also gave a GI50 (SN12C renal) of 0.894 µM, a TGI (SN12C renal) of 13.3 µM and a GI50 (SNB-75 CNS) of 0.224 µM. For the same compound, the TGI (SNB-75 CNS) was 4.15 µM, the GI50 (SW-620 colon) was 0.375 µM and the TGI (SW-620 colon) was greater than 38 µM. It also gave a GI50 (TK-10 renal) of 2.22 µM and a TGI (TK-10 renal) of 26.7 µM.

Clc1ccc2c(NCCNc3nc(N4CCCC4)nc4ccccc34)ccnc2c1 showed a GI50 (HCT-116 colon) of 0.309 µM, a TGI (HCT-116 colon) of 1.02 µM and a GI50 (HOP-62 NSCLC) of 1.49 µM. The TGI (HOP-62 NSCLC) was 3.49 µM, the GI50 (NCI-H23 lung) was 2.05 µM and the TGI (NCI-H23 lung) was 5.22 µM. The GI50 (OVCAR-8 ovarian) was 1.65 µM, the TGI (OVCAR-8 ovarian) was 4.12 µM and the GI50 (RPMI-8226 leukemia) was 1.76 µM. For the same compound, the TGI (RPMI-8226 leukemia) was 4.96 µM, the GI50 (SF-268 CNS) was 1.59 µM and the TGI (SF-268 CNS) was 5.41 µM. For the same compound, the GI50 (SN12C renal) was 1.16 µM, the TGI (SN12C renal) was 3.3 µM and the GI50 (SNB-75 CNS) was 1.37 µM. The TGI (SNB-75 CNS) was 3 µM, the GI50 (SW-620 colon) was 0.1 µM and the TGI (SW-620 colon) was 1.45 µM. It also gave a GI50 (TK-10 renal) of 2.07 µM and a TGI (TK-10 renal) of 4.2 µM.

In the case of COc1cc2c3c(n(CCCN4CCCC(O)C4)c(=O)c2cc1OC)-c1cc2c(cc1C3=O)OCO2 (stereo not given), the GI50 (HCT-116 colon) is reported as 0.0157 µM, the TGI (HCT-116 colon) is reported as 0.925 µM and the GI50 (HOP-62 NSCLC) is reported as 0.0194 µM. For the same compound, the TGI (HOP-62 NSCLC) was 0.0746 µM, the GI50 (NCI-H23 lung) was 0.0421 µM and the TGI (NCI-H23 lung) was 0.775 µM. It also gave a GI50 (OVCAR-8 ovarian) of 0.587 µM, a TGI (OVCAR-8 ovarian) of 1.45 µM and a GI50 (RPMI-8226 leukemia) of 0.0961 µM. It also gave a TGI (RPMI-8226 leukemia) of 0.447 µM, a GI50 (SF-268 CNS) of 0.593 µM and a TGI (SF-268 CNS) of 1.94 µM. For the same compound, the GI50 (SN12C renal) was 0.162 µM, the TGI (SN12C renal) was 0.964 µM and the GI50 (SNB-75 CNS) was 0.546 µM. It also gave a TGI (SNB-75 CNS) of 1.57 µM, a GI50 (SW-620 colon) of 0.047 µM and a TGI (SW-620 colon) of 7.61 µM. For the same compound, the GI50 (TK-10 renal) was 6.38 µM and the TGI (TK-10 renal) was 14.2 µM.

Work on Cc1cc2nc(C(Cl)Cl)nc(-c3ccccc3)n2n1 yielded a GI50 (HCT-116 colon) of 3.45 µM, a TGI (HCT-116 colon) of 24 µM and a GI50 (HOP-62 NSCLC) of 2.48 µM. For the same compound, the TGI (HOP-62 NSCLC) was 8.64 µM, the GI50 (NCI-H23 lung) was 3.06 µM and the TGI (NCI-H23 lung) was 10.9 µM. The GI50 (OVCAR-8 ovarian) was 5.06 µM, the TGI (OVCAR-8 ovarian) was greater than 100 µM and the GI50 (RPMI-8226 leukemia) was 5.04 µM. The TGI (RPMI-8226 leukemia) was 44.3 µM, the GI50 (SF-268 CNS) was 4.76 µM and the TGI (SF-268 CNS) was 39.4 µM. It also gave a GI50 (SN12C renal) of 24.7 µM, a TGI (SN12C renal) greater than 100 µM and a GI50 (SNB-75 CNS) of 1.75 µM. For the same compound, the TGI (SNB-75 CNS) was 12.9 µM, the GI50 (SW-620 colon) was 3.22 µM and the TGI (SW-620 colon) was 28 µM. The GI50 (TK-10 renal) was 4.73 µM and the TGI (TK-10 renal) was 51.2 µM.

In the case of Cn1nc2ccccc2cc1=O, the TGI (HCT-116 colon) is reported as greater than 100 µM, the TGI (HOP-62 NSCLC) is reported as greater than 100 µM and the TGI (NCI-H23 lung) is reported as greater than 100 µM. The TGI (OVCAR-8 ovarian) was greater than 100 µM, the TGI (RPMI-8226 leukemia) was greater than 100 µM and the TGI (SF-268 CNS) was greater than 100 µM. The TGI (SN12C renal) was greater than 100 µM, the TGI (SNB-75 CNS) was greater than 100 µM and the TGI (SW-620 colon) was greater than 100 µM. It also gave a TGI (TK-10 renal) greater than 100 µM.

C=C(C)[C@@H]1CC[C@]2(C(N)=O)CC[C@]3(C)[C@H](CC[C@@H]4[C@@]5(C)C/C(=C/c6cccnc6)[C@H](O)C(C)(C)[C@@H]5CC[C@]43C)[C@@H]12 showed a GI50 (HCT-116 colon) of 2.22 µM, a TGI (HCT-116 colon) greater than 100 µM and a GI50 (HOP-62 NSCLC) of 9.52 µM. The TGI (HOP-62 NSCLC) was greater than 100 µM, the GI50 (NCI-H23 lung) was 4.96 µM and the TGI (NCI-H23 lung) was greater than 100 µM. It also gave a GI50 (OVCAR-8 ovarian) of 4.54 µM, a TGI (OVCAR-8 ovarian) greater than 100 µM and a GI50 (RPMI-8226 leukemia) of 2.5 µM. For the same compound, the TGI (RPMI-8226 leukemia) was 48.3 µM, the GI50 (SF-268 CNS) was 6.8 µM and the TGI (SF-268 CNS) was greater than 100 µM. It also gave a GI50 (SN12C renal) of 4.82 µM, a TGI (SN12C renal) greater than 100 µM and a GI50 (SNB-75 CNS) of 4.29 µM. For the same compound, the TGI (SNB-75 CNS) was greater than 100 µM, the GI50 (SW-620 colon) was 4.38 µM and the TGI (SW-620 colon) was greater than 100 µM. For the same compound, the GI50 (TK-10 renal) was 16.3 µM and the TGI (TK-10 renal) was greater than 100 µM.

O=[N+]([O-])c1cc2c(c([N+](=O)[O-])c1)Nc1ccccc1O2 showed a GI50 (HCT-116 colon) of 4.49 µM, a TGI (HCT-116 colon) of 63 µM and a GI50 (HOP-62 NSCLC) of 16.3 µM. It also gave a TGI (HOP-62 NSCLC) of 44.4 µM, a GI50 (NCI-H23 lung) of 2.78 µM and a TGI (NCI-H23 lung) of 87.2 µM. The GI50 (OVCAR-8 ovarian) was 10 µM, the TGI (OVCAR-8 ovarian) was greater than 100 µM and the GI50 (RPMI-8226 leukemia) was 2.96 µM. It also gave a TGI (RPMI-8226 leukemia) of 8.2 µM, a GI50 (SF-268 CNS) of 6.53 µM and a TGI (SF-268 CNS) greater than 100 µM. For the same compound, the GI50 (SN12C renal) was 6 µM, the TGI (SN12C renal) was greater than 100 µM and the GI50 (SNB-75 CNS) was 29.8 µM. It also gave a TGI (SNB-75 CNS) greater than 100 µM, a GI50 (SW-620 colon) of 10.7 µM and a TGI (SW-620 colon) greater than 100 µM. The GI50 (TK-10 renal) was 9.98 µM and the TGI (TK-10 renal) was 46.7 µM.

For CC(CN)[C@@H]1CC[C@]2(CO)CC[C@]3(C)[C@H](CC[C@@H]4[C@@]5(C)CCC(N)C(C)(C)[C@@H]5CC[C@]43C)[C@@H]12 (stereo not given in full), the GI50 (HCT-116 colon) was 1.68 µM, the TGI (HCT-116 colon) was 3.59 µM and the GI50 (HOP-62 NSCLC) was 1.84 µM. For the same compound, the TGI (HOP-62 NSCLC) was 3.55 µM, the GI50 (NCI-H23 lung) was 1.85 µM and the TGI (NCI-H23 lung) was 3.7 µM. It also gave a GI50 (OVCAR-8 ovarian) of 1.92 µM, a TGI (OVCAR-8 ovarian) of 3.36 µM and a GI50 (RPMI-8226 leukemia) of 2.06 µM. For the same compound, the TGI (RPMI-8226 leukemia) was 4.58 µM, the GI50 (SF-268 CNS) was 1.65 µM and the TGI (SF-268 CNS) was 3.29 µM. It also gave a GI50 (SN12C renal) of 1.91 µM, a TGI (SN12C renal) of 3.67 µM and a GI50 (SNB-75 CNS) of 1.41 µM. It also gave a TGI (SNB-75 CNS) of 2.82 µM, a GI50 (SW-620 colon) of 1.8 µM and a TGI (SW-620 colon) of 3.43 µM. The GI50 (TK-10 renal) was 1.69 µM and the TGI (TK-10 renal) was 3.1 µM.

For Nc1nc(=Nc2ccccc2)ss1, the TGI (HCT-116 colon) was greater than 100 µM, the TGI (HOP-62 NSCLC) was greater than 100 µM and the TGI (NCI-H23 lung) was greater than 100 µM. For the same compound, the TGI (OVCAR-8 ovarian) was greater than 100 µM, the TGI (RPMI-8226 leukemia) was greater than 100 µM and the TGI (SF-268 CNS) was greater than 100 µM. For the same compound, the TGI (SN12C renal) was greater than 100 µM, the TGI (SNB-75 CNS) was greater than 100 µM and the TGI (SW-620 colon) was greater than 100 µM. The TGI (TK-10 renal) was greater than 100 µM.
